Activity calls are given as the source filed them. The rule behind the calls is not given here.
system: MDA-MB-231; assay: Antiproliferative activity against human MDA-MB-231 cells by WST-1 method after 72 hrs; assay type: functional, cell-based; conditions: MDA-MB-231, 72 h

| IC50 | SMILES |
| --- | --- |
| 6.5 µM | CN(C)CCn1nc2c3c(c4[nH]cnc4cc31)Oc1ccccc1-2 |
| 8.5 µM | CCN(CC)CCn1nc2c3c(c4[nH]cnc4cc31)Oc1ccccc1-2 |
| 18 µM | CCN(CC)CCn1nc2c3c(c4[nH]c(C)nc4cc31)Oc1ccccc1-2 |
| 17 µM | Cc1nc2cc3c4c(nn3CCN(C)C)-c3ccccc3Oc4c2[nH]1 |

system: MDA-MB-231; assay: Growth inhibition of human MDA-MB-231 cells at 100 uM by WST-1 method after 72 hrs; assay type: functional, cell-based; conditions: not given

| SMILES | Activity |
| --- | --- |
| CN(C)CCNc1cc2nc[nH]c2c2oc3ccccc3c(=O)c12 | Active |
| CCN(CC)CCNc1cc2nc[nH]c2c2oc3ccccc3c(=O)c12 | Active |

Reference: ChEMBL document CHEMBL1142974, “Design, synthesis, and evaluation of the antiproliferative activity of a series of novel fused xanthenone aminoderivatives in human breast cancer cells” (J Med Chem, 2007)
